Data published in patent US20100048597A1 (Novartis AG, priority 2006, published 2010).
Read-outs that look alike come from different tables or passages of the source.

How the values were obtained:
CDK9/cyclinT1 = target: T1, CDK9/cyclinT1 (Homo sapiens, UniProt P50750); assay: CDK9/cyclinT1 kinase assay, IMAP fluorescence polarization; type: biochemical
T1 construct: purchased Millipore
Protocol: (§1) Kinase assays were performed on recombinant purified enzymes using the non-radioactive IMAP fluorescence polarization assay format.
(§2) Compound stocks were prepared and diluted in DMSO and were added to kinase reactions at a 1/100 dilution for a final concentration of 1% DMSO. The components were added together to final concentrations listed in the tables below and incubated for two hours at room temperature.
(§3) The reactions were stopped by addition of stop solution.
CDK9/CDK1/CDK7: final stop concentration is 1× Developer buffer (85% A/15% B), IMAP beads 1/400
(§4) The samples were allowed to incubate for one more hour at room temperature and then the fluorescence polarization was measured. The plate normalized millipolarization (mP) values were plotted against the log of compound concentration for each compound and IC50 values were calculated using the spotfire IC50 calculator and confirmed by visual analysis.

CDK1/cyclinB = target: T2, CDK1/cyclinB (Homo sapiens, UniProt P06493); assay: CDK1/cyclinB kinase assay, IMAP fluorescence polarization; type: biochemical
T2 construct: purchased Millipore
Protocol: as §1, §2, §3
The samples were allowed to incubate for one more hour at room temperature and then the fluorescence polarization was measured.

CDK2/cyclinA = target: T3, CDK2/cyclinA (Homo sapiens, UniProt P24941); assay: CDK2/cyclinA kinase assay, IMAP fluorescence polarization; type: biochemical
T3 construct: purchased Millipore
Protocol: as §1, §2, §3
CDK2: final stop concentration is 1× Developer buffer (100% A), IMAP beads 1/400
as §4

CDK4 = CDK4 (Homo sapiens, UniProt P11802); assay: CDK4 kinase assay (Table F); type: biochemical
CDK5 = CDK5 (Homo sapiens, UniProt Q00535); assay: CDK5 kinase assay (Table F); type: biochemical
[1] = test system: RNA Polymerase II CTD Serine2 Phosphorylation; assay: H5 (Ser2) Ab High Content Screen: RNA Polymerase II CTD Serine2 Phosphorylation Assay in Hep3B cells; type: cell-based; conditions: Homo sapiens, 2 hours with compound, H5 antibody staining
Protocol: H5 (also referred as Ser2) Ab High Content Screen: RNA Polymerase II CTD Serine2 Phosphorylation Assay
1. Cells are plated into 384 well plates: 30 μl of Hep3B cells (4,000 cells/30 μl) in DMEM with 3% FBS are plated into wells of a tissue culture treated clear bottomed 384 well plate. Cells are allowed to adhere during an overnight incubation.
2. Cells are treated with compounds for two hours: 10 μl of DMEM with 3% FBS is added to each well with a final concentration of DMSO equal to 1%. Cells are incubated with compounds for 2 hours.
3. Cells are fixed and permeabilized. Cells are washed with 30 mM HEPES pH=7.3 then fixed in 4% paraformaldehyde in 30 mM HEPES pH=7.3 for one hour at room temperature. The fix is removed by washing the cells with Tris buffered saline (TBS) and the cells are permeabilized by incubation in TBS with 0.5% triton X-100 for 30 minutes at room temperature. Triton is removed by washing the cells with TBS.
4. […] Incubate primary H5 Ab (1/250 ) overnight at 4 degrees in TBS with 1% BSA and 0.1% Tween-20. The next day wash cells with TBS. […] Wash cells with PBS.
5. Measure staining using the In-cell Analyzer system from GE Healthcare.

T1 sequence (P50750 whole entry): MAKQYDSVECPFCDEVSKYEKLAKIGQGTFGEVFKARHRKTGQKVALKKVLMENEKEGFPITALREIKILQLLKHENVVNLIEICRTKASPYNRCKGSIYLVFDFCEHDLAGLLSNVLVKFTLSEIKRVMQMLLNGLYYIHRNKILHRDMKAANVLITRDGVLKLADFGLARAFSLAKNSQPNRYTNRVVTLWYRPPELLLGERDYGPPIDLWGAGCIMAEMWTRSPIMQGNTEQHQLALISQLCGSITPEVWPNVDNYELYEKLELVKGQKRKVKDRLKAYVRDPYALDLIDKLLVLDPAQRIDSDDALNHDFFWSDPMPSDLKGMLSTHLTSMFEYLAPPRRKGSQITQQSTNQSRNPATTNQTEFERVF
T1 sequence (O60563 whole entry partner): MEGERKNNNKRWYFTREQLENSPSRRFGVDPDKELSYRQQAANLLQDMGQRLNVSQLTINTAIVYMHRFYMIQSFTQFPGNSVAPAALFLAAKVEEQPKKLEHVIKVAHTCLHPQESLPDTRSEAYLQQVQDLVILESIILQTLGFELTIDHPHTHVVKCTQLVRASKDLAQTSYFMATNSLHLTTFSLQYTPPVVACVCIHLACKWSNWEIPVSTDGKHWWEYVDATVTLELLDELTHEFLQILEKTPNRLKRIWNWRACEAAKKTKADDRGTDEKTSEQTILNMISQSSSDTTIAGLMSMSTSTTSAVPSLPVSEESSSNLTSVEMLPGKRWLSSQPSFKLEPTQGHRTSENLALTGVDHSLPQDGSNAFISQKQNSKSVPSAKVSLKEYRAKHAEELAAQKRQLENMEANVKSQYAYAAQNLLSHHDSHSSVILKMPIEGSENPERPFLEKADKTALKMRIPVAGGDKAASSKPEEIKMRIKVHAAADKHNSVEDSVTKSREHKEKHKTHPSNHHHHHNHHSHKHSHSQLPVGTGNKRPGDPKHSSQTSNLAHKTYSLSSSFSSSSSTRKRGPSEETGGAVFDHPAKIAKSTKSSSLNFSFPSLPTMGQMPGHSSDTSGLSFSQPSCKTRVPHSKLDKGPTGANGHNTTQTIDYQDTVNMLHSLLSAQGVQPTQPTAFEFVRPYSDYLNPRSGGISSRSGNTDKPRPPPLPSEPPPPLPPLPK
T2 sequence (P06493 whole entry): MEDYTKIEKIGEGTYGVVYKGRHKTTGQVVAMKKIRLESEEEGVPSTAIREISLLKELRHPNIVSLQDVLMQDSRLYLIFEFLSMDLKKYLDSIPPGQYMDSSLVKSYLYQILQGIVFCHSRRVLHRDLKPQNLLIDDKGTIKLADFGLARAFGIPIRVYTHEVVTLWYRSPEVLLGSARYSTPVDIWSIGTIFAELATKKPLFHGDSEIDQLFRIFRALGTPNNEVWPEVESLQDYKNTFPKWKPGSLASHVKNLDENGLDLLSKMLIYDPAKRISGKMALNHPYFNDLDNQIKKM
T2 sequence (P14635 whole entry partner): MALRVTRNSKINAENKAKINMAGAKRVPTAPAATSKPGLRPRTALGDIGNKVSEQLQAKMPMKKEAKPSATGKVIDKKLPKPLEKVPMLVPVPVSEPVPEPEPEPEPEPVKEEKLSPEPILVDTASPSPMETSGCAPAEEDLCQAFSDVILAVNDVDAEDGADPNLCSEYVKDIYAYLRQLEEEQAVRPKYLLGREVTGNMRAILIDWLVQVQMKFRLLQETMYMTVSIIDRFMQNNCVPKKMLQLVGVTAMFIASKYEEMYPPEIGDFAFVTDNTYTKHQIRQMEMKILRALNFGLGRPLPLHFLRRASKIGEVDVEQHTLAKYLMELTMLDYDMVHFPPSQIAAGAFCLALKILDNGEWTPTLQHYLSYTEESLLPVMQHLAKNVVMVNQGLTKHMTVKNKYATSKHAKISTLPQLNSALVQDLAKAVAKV
Chain of CDK4 (P11802 whole entry, species assumed): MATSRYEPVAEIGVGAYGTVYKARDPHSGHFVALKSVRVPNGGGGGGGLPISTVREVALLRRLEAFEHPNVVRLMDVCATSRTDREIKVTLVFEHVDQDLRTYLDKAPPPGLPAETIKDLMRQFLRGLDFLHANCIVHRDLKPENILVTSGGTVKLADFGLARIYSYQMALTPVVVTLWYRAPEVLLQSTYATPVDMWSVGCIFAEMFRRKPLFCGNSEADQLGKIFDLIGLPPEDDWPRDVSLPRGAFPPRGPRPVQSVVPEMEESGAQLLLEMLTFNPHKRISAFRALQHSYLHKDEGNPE
Chain of CDK4 (P24385 whole entry partner, species assumed): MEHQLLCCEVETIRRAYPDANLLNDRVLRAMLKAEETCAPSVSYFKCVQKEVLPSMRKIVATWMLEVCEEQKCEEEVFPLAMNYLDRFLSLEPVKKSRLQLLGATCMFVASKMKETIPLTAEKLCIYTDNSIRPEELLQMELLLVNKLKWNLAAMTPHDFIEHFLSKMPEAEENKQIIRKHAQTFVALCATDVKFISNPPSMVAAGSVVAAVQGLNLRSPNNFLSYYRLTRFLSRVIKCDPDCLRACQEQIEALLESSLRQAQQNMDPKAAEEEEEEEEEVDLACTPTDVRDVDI
Chain of CDK5 (Q00535 whole entry, species assumed): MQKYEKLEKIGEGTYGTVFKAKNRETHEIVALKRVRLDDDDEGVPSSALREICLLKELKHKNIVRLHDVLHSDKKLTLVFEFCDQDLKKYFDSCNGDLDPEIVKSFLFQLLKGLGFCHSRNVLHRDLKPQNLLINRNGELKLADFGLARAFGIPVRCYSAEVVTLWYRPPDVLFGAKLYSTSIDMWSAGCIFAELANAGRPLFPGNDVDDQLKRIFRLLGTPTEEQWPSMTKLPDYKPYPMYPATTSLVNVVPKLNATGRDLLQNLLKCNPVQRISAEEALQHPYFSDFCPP
Chain of CDK5 (Q15078 whole entry partner, species assumed): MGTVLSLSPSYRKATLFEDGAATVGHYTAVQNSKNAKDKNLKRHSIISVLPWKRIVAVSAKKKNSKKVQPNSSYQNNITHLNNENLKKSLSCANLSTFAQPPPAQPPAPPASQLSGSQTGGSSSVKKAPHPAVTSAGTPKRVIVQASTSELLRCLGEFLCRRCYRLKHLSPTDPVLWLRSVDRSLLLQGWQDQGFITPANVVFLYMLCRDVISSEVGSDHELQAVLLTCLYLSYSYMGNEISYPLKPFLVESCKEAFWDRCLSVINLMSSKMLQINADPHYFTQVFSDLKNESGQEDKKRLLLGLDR

SMILES | IC50 (CDK9/cyclinT1) | IC50 (CDK1/cyclinB; read-out: CDK1 IC50) | IC50 (CDK2/cyclinA) | IC50 (CDK4) | IC50 (CDK5) | IC50 [1] | IC50 (CDK1/cyclinB)
CC(=O)NCCCNc1ncccc1-c1ccnc(Nc2cccc(S(N)(=O)=O)c2)n1 [Compound 68, N-(3-{3-[2-(3-Sulfamoyl-phenylamino)-pyrimidin-4-yl]-pyridin-2-ylamino}-propyl)-acetamide] | < 5 µM | < 5 µM | < 5 µM | 15 to 50 µM | < 5 µM | – | –
COc1ncccc1-c1ccnc(Nc2ccc(N3CCN(C)CC3)cc2)n1 [Compound 117, [4-(2-Methoxy-pyridin-3-yl)-pyrimidin-2-yl]-[4-(4-methyl-piperazin-1-yl)-phenyl]-amine] | < 5 µM | 5 to 15 µM | < 5 µM | < 5 µM | < 5 µM | – | –
Cc1c(-c2ccnc(Nc3cccc(Cl)c3)n2)ccnc1Cl [Compound 2, [4-(2-Chloro-3-methyl-pyridin-4-yl)-pyrimidin-2-yl]-(3-chloro-phenyl)-amine] | < 5 µM | > 50 µM | > 50 µM | – | – | > 50 µM | –
CCN(CC)S(=O)(=O)c1cccc(Nc2nccc(-c3cccnc3OC)n2)c1 [Compound 105, N,N-Diethyl-3-[4-(2-methoxy-pyridin-3-yl)-pyrimidin-2-ylamino]-benzenesulfonamide] | > 50 µM | > 50 µM | > 50 µM | 15 to 50 µM | 5 to 15 µM | – | –
Cc1c(-c2ccnc(Nc3cccc(Cl)c3)n2)ccnc1NCCCN1CCCC1=O [Compound 24, 1-(3-{4-[2-(3-Chloro-phenylamino)-pyrimidin-4-yl]-3-methyl-pyridin-2-ylamino}-propyl)-pyrrolidin-2-one] | < 5 µM | 5 to 15 µM | < 5 µM | – | 5 to 15 µM | 15 to 50 µM | –
Cc1c(-c2ccnc(Nc3cccc(Cl)c3)n2)ccnc1NCCCN1CCOCC1 [Compound 22, (3-Chloro-phenyl)-{4-[3-methyl-2-(3-morpholin-4-yl-propylamino)-pyridin-4-yl]-pyrimidin-2-yl}-amine] | < 5 µM | 5 to 15 µM | < 5 µM | – | – | 5 to 15 µM | –
Clc1cccc(Nc2nccc(-c3cccnc3NCCc3c[nH]cn3)n2)c1 [Compound 79] | < 5 µM | < 5 µM | < 5 µM | 15 to 50 µM | < 5 µM | – | –
Cc1c(-c2ccnc(Nc3cccc(Cl)c3)n2)ccnc1NCc1ccccc1 [Compound 21, [4-(2-Benzylamino-3-methyl-pyridin-4-yl)-pyrimidin-2-yl]-(3-chloro-phenyl)-amine] | < 5 µM | < 5 µM | < 5 µM | – | – | 5 to 15 µM | –
COc1cnccc1-c1nc(Nc2cccc(S(N)(=O)=O)c2)ncc1C [Compound 47, 3-[4-(3-Methoxy-pyridin-4-yl)-5-methyl-pyrimidin-2-ylamino]-benzenesulfonamide] | < 5 µM | 5 to 15 µM | < 5 µM | < 5 µM | < 5 µM | – | –
CC(=O)NCCCNc1ncccc1-c1ccnc(Nc2cccc(S(C)(=O)=O)c2)n1 [Compound 67, N-(3-{3-[2-(3-Methanesulfonyl-phenylamino)-pyrimidin-4-yl]-pyridin-2-ylamino}-propyl)-acetamide] | < 5 µM | > 50 µM | 5 to 15 µM | 15 to 50 µM | 5 to 15 µM | – | –
CCCCNS(=O)(=O)c1cccc(Nc2nccc(-c3cccnc3OC)n2)c1 [Compound 102, N-Butyl-3-[4-(2-methoxy-pyridin-3-yl)-pyrimidin-2-ylamino]-benzenesulfonamide] | < 5 µM | < 5 µM | < 5 µM | – | – | 15 to 50 µM | –
CC(=O)NCCCNc1cc(-c2ccnc(Nc3cccc(Cl)c3)n2)cc(C)n1 [Compound 42, N-(3-{4-[2-(3-Chloro-phenylamino)-pyrimidin-4-yl]-6-methyl-pyridin-2-ylamino}-propyl)-acetamide] | < 5 µM | < 5 µM | < 5 µM | – | – | < 5 µM | –
NCCCOc1ncccc1-c1ccnc(Nc2cccc(Cl)c2)n1 [Compound 120, {4-[2-(3-Amino-propoxy)-pyridin-3-yl]-pyrimidin-2-yl}-(3-chloro-phenyl)-amine] | < 5 µM | < 5 µM | 15 to 50 µM | 15 to 50 µM | < 5 µM | – | –
Cc1cnccc1-c1ccnc(Nc2cccc(Cl)c2)n1 [Compound 44, (3-Chloro-phenyl)-[4-(3-methyl-pyridin-4-yl)-pyrimidin-2-yl]-amine] | < 5 µM | < 5 µM | < 5 µM | 15 to 50 µM | < 5 µM | – | –
CN(C)CCCNc1ncccc1-c1ccnc(Nc2cccc(Cl)c2)n1 [Compound 63, N-{3-[2-(3-Chloro-phenylamino)-pyrimidin-4-yl]-pyridin-2-yl}-N′,N′-dimethyl-propane-1,3-diamine] | < 5 µM | < 5 µM | < 5 µM | 5 to 15 µM | < 5 µM | – | –
COc1ncccc1-c1ccnc(Nc2cccc(-c3cnco3)c2)n1 [Compound 110, [4-(2-Methoxy-pyridin-3-yl)-pyrimidin-2-yl]-(3-oxazol-5-yl-phenyl)-amine] | < 5 µM | < 5 µM | < 5 µM | – | – | < 5 µM | –
COc1ncccc1-c1ccnc(Nc2ccc3cn[nH]c3c2)n1 [Compound 112, (1H-Indazol-6-yl)-[4-(2-methoxy-pyridin-3-yl)-pyrimidin-2-yl]-amine] | < 5 µM | – | < 5 µM | – | – | < 5 µM | < 5 µM
CC(=O)NCCCOc1ncccc1-c1ccnc(Nc2cccc(Cl)c2)n1 [Compound 121, N-(3-{3-[2-(3-Chloro-phenylamino)-pyrimidin-4-yl]-pyridin-2-yloxy}-propyl)-acetamide] | < 5 µM | 5 to 15 µM | 15 to 50 µM | 15 to 50 µM | 15 to 50 µM | – | –
CC(C)NCCCNc1ncccc1-c1ccnc(Nc2cccc(Cl)c2)n1 [Compound 64, N-{3-[2-(3-Chloro-phenylamino)-pyrimidin-4-yl]-pyridin-2-yl}-N′-isopropyl-propane-1,3-diamine] | < 5 µM | < 5 µM | < 5 µM | 5 to 15 µM | < 5 µM | – | –
CC(=O)NCCCNc1ncccc1-c1ccnc(Nc2cccc(C#N)c2)n1 [Compound 69, N-(3-{3-[2-(3-Cyano-phenylamino)-pyrimidin-4-yl]-pyridin-2-ylamino}-propyl)-acetamide] | < 5 µM | < 5 µM | < 5 µM | 15 to 50 µM | < 5 µM | – | –
NS(=O)(=O)c1cccc(Nc2nccc(-c3cccnc3NCCCn3ccnc3)n2)c1 [Compound 83, 3-{4-[2-(3-Imidazol-1-yl-propylamino)-pyridin-3-yl]-pyrimidin-2-ylamino}-benzenesulfonamide] | < 5 µM | < 5 µM | < 5 µM | 15 to 50 µM | < 5 µM | – | –
COc1ncccc1-c1ccnc(Nc2cccc(S(=O)(=O)N3CCCCC3)c2)n1 [Compound 107, [4-(2-Methoxy-pyridin-3-yl)-pyrimidin-2-yl]-[3-(piperidine-1-sulfonyl)-phenyl]-amine] | < 5 µM | 5 to 15 µM | < 5 µM | – | – | – | –
COc1ncccc1-c1ccnc(Nc2cccc(C(=O)O)c2)n1 [Compound 94, 3-[4-(2-Methoxy-pyridin-3-yl)-pyrimidin-2-ylamino]-benzoic acid] | 15 to 50 µM | 15 to 50 µM | < 5 µM | – | – | – | –
